Assay results taken from patent publication USRE37828E1, “Treatment and prevention of adhesions” (Hadasit Medical Research Services & Development Co., Ltd., priority 1997, dated 2002).
Values joined by “and” are separate entries in the source; they are usually repeats but may differ in a detail not shown here. Equal entries are not always repeated.

Assays:
adhesions = conditions: infertility surgery, gynecological surgeons; cited from earlier work
peritoneal adhesions = conditions: rats, cited from earlier work
[1] = ascribed to effects on many collagen types and Fe++ ion-binding enzymes; cited from earlier work
collagen type I [2] = experiment: Collagen α1(I) gene expression and collagen type I content in surgically insulted abdominal tissue (in situ hybridization, Sirius red); assay type: in vivo; conditions: rats with surgery, Halofuginone i.p. daily for 21 days
Experimental: (§1) The experiments were performed as follows. First, the abdomen of the rats was shaved and prepared with iodine and alcohol. The abdominal cavity was entered through a mid-line incision. The small intestine was scraped from the duodenum down to from about 9 to about 10 cm from the cecum, until capillary bleeding occurred. To avoid drying, Hartman's solution at about 37° C. was occasionally dripped on the intestine. After replacement of the intestine into the abdominal cavity, the abdomen was closed in two layers with continuous 00 chromic catgut suture. […] Res., Vol 17, p. 254-258, 1985]. After 21 days, the rats were sacrificed and the sutures were reopened to determine the level of adhesion formation and to take biopsies of the tissue.
The tissue was sectioned so that histological studies could be performed. Briefly, the tissue samples were collected into phosphate-buffered saline (PBS) and fixed overnight in 4% paraformaldehyde in PBS at 4° C. Serial 5 μm sections were prepared after the samples had been dehydrated in graded ethanol solutions, cleared in chloroform and embedded in Paraplast. Differential staining of collagenous and non-collagenous proteins were performed with 0.1% Sirius red and 0.1% fast green as a counter-stain in picric acid. This procedure stains collagen red [Gascon-Barre, M., et al., J. Histochem. Cytochem., Vol 37, p. 377-381, 1989].
For hybridization with the genetic probe, the sections were deparafinized in xylene, rehydrated through a graded series of ethanol solutions, rinsed in distilled water for 5 minutes and then incubated in 2×SSC [What is the recipe?] at 70° C. for 30 minutes. The sections were then rinsed in distilled water and treated with pronase, 0.125 mb/ml in 50 mM Tris-HCl, 5 mM EDTA, pH 7.5 for 10 minutes. […] Alkaline phosphatase activity was detected in the sections as previously described [Knopov, V., et al., Bone, Vol 16 p. […]
After 21 days, tissue samples were taken for histological analysis as described above. Both collagen type I content of the tissue, and the level of collagen a(1)I gene expression were measured.

skin wound [3] = experiment: Wound healing and collagen content of skin wounds in irradiated and non-irradiated mice; assay type: in vivo, C3H mice; conditions: Halofuginone 1 μg/mouse i.p. every other day, 14 days
Experimental: The experiment was conducted as follows. First C3H, defined-flora, pathogen-free female mice of 12-14 weeks of age were anesthetized with 60 mg/kg sodium phenobarbital. The mice were then shaved. One group of mice was then irradiated as follows. First, a flap of skin about 40 mm long and about 20 mm wide was pulled through a slit in the lead cover of an irradiation jig and secured with tape, so that only the flap of skin was exposed. This exposed skin was then irradiated by using a 175 kVp/20 mA orthovoltage X-ray source, with a 2 mm Cu filter at a dose rate of 1.0 Gy/min. A standard dose of 18 Gy was delivered.
All of the mice were then wounded by making a fill depth incision, about 25 mm long, in the skin along the midline of the lower back. Note that for the irradiated animals, the wound was made within the irradiated area, immediately following irradiation. For all mice, the incision was immediately closed by 3-4 metallic wound closure clips which were removed 2 days later.
After wounding, the mice were injected i.p every other day, either with 1 μg/mouse Halofuginone or with saline as a control. After 14 days, 2 days following the last injection, the mice were sacrificed and skin samples were collected into phosphate-buffered saline (PBS) and fixed in 4% paraformaldehyde in PBS at 4° C. […]

[4] = parameters: species or system rats; conditions: rat, in vivo
Experimental: (§2) In the second experiment, Halofuginone was administered in the diet of two groups of rats at a concentration of 5 mg/kg dry feed for 4 days before surgery, as a pretreatment. Two other groups of rats were fed a normal diet and served as control groups. One of the groups of rats fed Halofuginone and one control group the underwent surgery as described above. Halofuginone treatment was continued for 21 days following surgery, after which the rats were sacrificed and the number and severity of adhesions were determined, and body weight was measured.

collagen type I [5] = conditions: cited from earlier work
[6] = parameters: species or system rats; conditions: rat, in vivo, ip
Experimental: (§3) The experiment was performed as follows. Abdominal adhesions were induced in two groups of rats as described above in Example 1. […] One group of the rats which underwent surgery received an i.p. injection of Halofuginone every day after the operation for 21 days. The rats were dosed according to body weight, with 1 ug of Halofuginone given per 25 g of body weight. The other group of rats which underwent surgery received saline injections for 21 days.
Two different tests were performed to assess the effect of Halofuginone on the number and severity of adhesions in rats which underwent surgery. […] The experimental method was as follows. For the first test, three groups of rats were prepared as described above in Example 2. At the end of 21 days, the rats were weighed and the number and severity of adhesions were determined according to a double-blind procedure.

[7] = system: adhesions between tendon and its sheath; conditions: chickens, local treatment through a catheter; cited from earlier work
alkaline phosphatase = experiment: Alkaline phosphatase activity in tissue sections after abdominal surgery; assay type: in vivo; conditions: rats with surgery injected with Halofuginone, 21 days; FIG. 3C
Experimental: For hybridization with the genetic probe, the sections were deparafinized in xylene, rehydrated through a graded series of ethanol solutions, rinsed in distilled water for 5 minutes and then incubated in 2×SSC [What is the recipe?] at 70° C. for 30 minutes. The sections were then rinsed in distilled water and treated with pronase, 0.125 mb/ml in 50 mM Tris-HCl, 5 mM EDTA, pH 7.5 for 10 minutes. After digestion, the slides were rinsed with distilled water, post-fixed in 10% formalin in PBS and blocked in 0.2% glycine. After blocking, the slides were rinsed in distilled water, rapidly dehydrated through graded ethanol solutions and air-dried for several hours. Before hybridization, the 1600 bp rat collagen α1(I) insert was cut out from the original plasmid, pUC18, and inserted into the pSafyre plasmid. The sections were then hybridized with this probe after digoxigenin-labelling. Alkaline phosphatase activity was detected in the sections as previously described [Knopov, V., et al., Bone, Vol 16 p. 329S-334S, 1995].
After 21 days, tissue samples were taken from all three groups of rats and histological sections were prepared as described in Example 1, and alkaline phosphatase activity was measured as described in Example 1.

abdominal adhesions [8] = experiment: Post-surgical abdominal adhesions in rats, Halofuginone i.p. injection: number and severity of adhesions; assay type: in vivo; parameters: key to Adhesion Score: 0=no adhesions; I=a thin, filmy, easily separated adhesion; II=several thin adhesions; III=a thick, broad adhesion; IV=several thick adhesions
Experimental: as §1
as §3, with “The other group of rats which underwent surgery received saline injections for 21 days.” left out
Two different tests were performed to assess the effect of Halofuginone on the number and severity of adhesions in rats which underwent surgery. […] At the end of 21 days, the rats were weighed and the number and severity of adhesions were determined according to a double-blind procedure. […]

abdominal adhesions [9] = experiment: Post-surgical abdominal adhesions in rats, Halofuginone in the diet: number and severity of adhesions; assay type: in vivo; parameters: key to Adhesion: 0=no adhesions; I=a thin, filmy, easily separated adhesion; II=several thin adhesions; III=a thick, broad adhesion; IV=several thick adhesions; conditions: for Adhesion: one rat per row
Experimental: as §1
In the double-blind procedure, adhesions were classified according to the following grading: 0=no adhesions; I=a thin, filmy, easily separated adhesion; II=several thin adhesions; III=a thick, broad adhesion and IV=several thick adhesions. Clearly, 0 is the least severe and IV is the most severe grade.
as §2

skin wound [10] = experiment: Wound strength (bursting point of skin strips, Instron tensiometer); assay type: in vivo, rats; conditions: irradiated or non-irradiated animals, one or six injections of Halofuginone; FIG. 5
Experimental: Wound strength was assessed by preparing rats substantially as described above, except that one group of rats (not irradiated) only received one injection of Halofuginone after wounding. The strength of wounds was measured as follows. First, a square of skin which was approximately 20 mm long and 16 mm wide, and which included the main part of the wound, was excised from sacrificed rats. Next, the skin was cut, perpendicular to the wound, to yield 7 strips of skin, each of which was 2 mm wide. The skin strips were secured between paper reinforcement frames and loaded on an Instron tensiometer for stretching at a constant rate of 25 mm/min. The bursting point was then recorded.

dextran
adhesive prevention (adhesions): little success

Oc1cc(O)c2c(c1)O[C@H](c1ccc(O)c(O)c1)[C@@H](O)C2 [cianidanol]
number of post-surgical adhesions (peritoneal adhesions): decrease | toxicity [1]: toxic

povidone-iodine
reduction of the number of peritoneal adhesions after surgery (peritoneal adhesions; effect ascribed to an anti-microbial effect): 35%

O=C(CC1NCCCC1O)Cn1cnc2cc(Br)c(Cl)cc2c1=O (centres unmarked) [Halofuginone]
damage to the villi (collagen type I [2]): much less damage | collagen α1(I) gene expression (collagen type I [2]; FIG. 2C): low levels | collagen type I content (collagen type I [2]; FIG. 2F): low level | collagen content of the wound (skin wound [3]; irradiated (18 Gy) mouse, FIG. 4H): significantly lowered | wound healing (skin wound [3]; irradiated and non-irradiated mice): healed | weight gain [4]: substantially similar | inhibition of synthesis of collagen type I versus other collagens (α2(I), type II, type III, type X) (collagen type I [5]): only inhibits the synthesis of collagen type I | reduction in weight gain [6]: more pronounced | prevention of adhesions between tendon and sheath [7]: effective | alkaline phosphatase activity (alkaline phosphatase): substantially no alkaline phosphatase activity | Adhesion Score (abdominal adhesions [8]; Group 2: rats with surgery, Halofuginone i.p. 1 ug per 25 g body weight daily for 21 days, one rat per row): 0 (3×) and 0-1 and 2 | number and severity of adhesions (abdominal adhesions [8]; Halofuginone-treated (i.p.) compared to non-treated rats after surgery): sharply reduced | Adhesion (abdominal adhesions [9]; Group 2: rats with surgery, Halofuginone 5 mg/kg dry feed from 4 days before to 21 days after surgery): 0-1 (3×) and 1 (3×) and 1-2 (2×) and 0 (2×) | Adhesion (abdominal adhesions [9]; Group 3: rats without surgery, Halofuginone 5 mg/kg dry feed): 0 | number of rats with an adhesion (abdominal adhesions [9]; Halofuginone in diet, rats with surgery, compared to untreated operated rats): smaller number | wound strength (skin wound [10]): did not reduce wound strength
